Experimental data published in PubChem BioAssay AID256 (DTP/NCI, 2004).
Where “and” joins values, the source holds several entries; their conditions need not be identical. Equal entries are not always repeated. Toxic doses and inconclusive results are not listed.

Test system: CD2F1 mice, L1210 leukemia ip, survival T/C
Assay: NCI In Vivo Anticancer Drug Screen. Data for tumor model L1210 Leukemia (intraperitoneal) in CD2F1 (CDF1) mice
Details: endpoint: mean survival time, higher = longer survival
Procedure, shortened: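 Each value reflects a quotient of treated over vehicle control outcomes in mice with a transplanted tumor.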

[1] = dose: 12.5 mg/kg/injection, schedule: Q01DX005 (ip), vehicle: distilled water + Tween-80
[2] = dose: 25.0 mg/kg/injection, schedule: Q01DX005 (ip), vehicle: distilled water + Tween-80
[3] = dose: 100.0 mg/kg/injection, schedule: Q01DX005 (ip), vehicle: distilled water + Tween-80
[4] = dose: 100.0 mg/kg/injection, schedule: Q01DX001 (ip), vehicle: saline with Tween-80
[5] = dose: 100.0 mg/kg/injection, schedule: Q01DX009 (ip), vehicle: saline with Tween-80
[6] = dose: 200.0 mg/kg/injection, schedule: Q01DX001 (ip), vehicle: saline with Tween-80
[7] = dose: 200.0 mg/kg/injection, schedule: Q01DX009 (ip), vehicle: saline with Tween-80
[8] = dose: 400.0 mg/kg/injection, schedule: Q01DX001 (ip), vehicle: saline with Tween-80
[9] = dose: 100.0 mg/kg/injection, schedule: Q04DX003 (ip), vehicle: saline with Tween-80
[10] = dose: 400.0 mg/kg/injection, schedule: Q01DX009 (ip), vehicle: saline with Tween-80
[11] = dose: 400.0 mg/kg/injection, schedule: Q04DX003 (ip), vehicle: saline with Tween-80
[12] = dose: 100.0 mg/kg/injection, schedule: Q04DX002 (ip), vehicle: saline with Tween-80
[13] = dose: 6.25 mg/kg/injection, schedule: Q01DX009 (ip), vehicle: water
[14] = dose: 12.5 mg/kg/injection, schedule: Q01DX009 (ip), vehicle: water
[15] = dose: 25.0 mg/kg/injection, schedule: Q01DX009 (ip), vehicle: water
[16] = dose: 200.0 mg/kg/injection, schedule: Q04DX003 (ip), vehicle: saline with Tween-80
[17] = dose: 100.0 mg/kg/injection, schedule: Q01DX009 (ip), vehicle: saline + alcohol
[18] = dose: 100.0 mg/kg/injection, schedule: Q04DX003 (ip), vehicle: saline + alcohol
[19] = dose: 200.0 mg/kg/injection, schedule: Q01DX009 (ip), vehicle: saline + alcohol
[20] = dose: 200.0 mg/kg/injection, schedule: Q04DX003 (ip), vehicle: saline + alcohol
[21] = dose: 400.0 mg/kg/injection, schedule: Q01DX009 (ip), vehicle: saline + alcohol
[22] = dose: 400.0 mg/kg/injection, schedule: Q04DX003 (ip), vehicle: saline + alcohol

NC(=O)c1ncn(C2CC3[O][Sn]([c]4ccccc4)([c]4ccccc4)[O]CC3O2)n1 (stereo unspecified)
T/C [1]: 101 % of control | T/C [2]: 97 % of control | T/C [3]: 88 % of control | T/C (dose: 200.0 mg/kg/injection, schedule: Q01DX005 (ip), vehicle: distilled water + Tween-80): 95 % of control

O=C(O)C1C2CC(C1C(=O)O)C(C(=O)O)C2C(=O)O (stereo unspecified)
T/C [4]: 94 % of control | T/C [5]: 87 % of control | T/C [6]: 88 % of control | T/C [7]: 87 % of control | T/C [8]: 95 % of control

O=c1[nH]c(=O)n(C2CC(O)C(CO)O2)cc1/C=C/c1ccccc1 (stereo unspecified)
T/C (dose: 6.25 mg/kg/injection, schedule: Q01DX005 (ip), vehicle: distilled water + Tween-80): 97 % of control | T/C [1]: 103 % of control | T/C [2]: 95 % of control | T/C (dose: 50.0 mg/kg/injection, schedule: Q01DX005 (ip), vehicle: distilled water + Tween-80): 95 % of control | T/C [3]: 96 % of control

Nc1nc(N)nc(NC(=O)COc2cc(Cl)c(Cl)cc2Cl)n1
T/C [5]: 100 % of control | T/C [9]: 92 % of control | T/C [7]: 105 % of control | T/C [10]: 103 % of control | T/C [11]: 88 % of control

N#CCCCN=[N+]=[N-]
T/C (dose: 75.0 mg/kg/injection, schedule: Q01DX001 (ip), vehicle: saline): 96 % of control | T/C (dose: 150.0 mg/kg/injection, schedule: Q01DX001 (ip), vehicle: saline): 101 % of control

CC(C)NC(=S)NC1=CCNN1c1ccccc1
T/C [12]: 100 % of control | T/C (dose: 200.0 mg/kg/injection, schedule: Q04DX002 (ip), vehicle: saline with Tween-80): 88 % of control | T/C (dose: 400.0 mg/kg/injection, schedule: Q04DX002 (ip), vehicle: saline with Tween-80): 88 % of control

Cc1ccc(S(=O)c2ccc(C)cc2)cc1
T/C (dose: 100.0 mg/kg/injection, schedule: Q01DX001 (ip), vehicle: Klucel (hydroxypropylcellulose) (HPC)): 101 % of control | T/C [4]: 100 % of control | T/C (dose: 200.0 mg/kg/injection, schedule: Q01DX001 (ip), vehicle: Klucel (hydroxypropylcellulose) (HPC)): 89 % of control | T/C [6]: 103 % of control | T/C (dose: 400.0 mg/kg/injection, schedule: Q01DX001 (ip), vehicle: Klucel (hydroxypropylcellulose) (HPC)): 93 % of control | T/C [8]: 100 % of control

Nc1ccc2c(c1)C(=O)OC2(C(F)(F)F)C(F)(F)F
T/C [4]: 104 % of control | T/C [6]: 101 % of control | T/C [8]: 102 % of control

CC1(C)N=C(N)N=C(N)N1c1ccc(CCC(=O)Nc2ccc(S(=O)(=O)F)cc2)c(Cl)c1
T/C (dose: 6.25 mg/kg/injection, schedule: Q01DX009 (ip), vehicle: saline): 104 % of control | T/C [13]: 112 % of control | T/C (dose: 12.5 mg/kg/injection, schedule: Q01DX009 (ip), vehicle: saline): 120 % of control | T/C [14]: 112 % of control | T/C [15]: 119 % of control | T/C (dose: 50.0 mg/kg/injection, schedule: Q01DX009 (ip), vehicle: saline): 120 % of control

CC/C(C)=C(/C(=O)O)c1ccccc1
T/C [5]: 95 % of control | T/C [7]: 98 % of control | T/C [10]: 97 % of control

COc1cccc2c1C(=O)c1c(O)c3c(c(O)c1C2=O)CC(O)(C(=O)CO)CC3OC1CC(N)C(O)C(C)O1 (stereo unspecified)
T/C (dose: 0.31 mg/kg/injection, schedule: Q04DX003 (ip), vehicle: saline): 120 % of control | T/C (dose: 0.62 mg/kg/injection, schedule: Q04DX003 (ip), vehicle: saline): 120 % of control | T/C (dose: 3.13 mg/kg/injection, schedule: Q01DX009 (ip), vehicle: water): 117 % of control | T/C [13]: 123 % of control | T/C [14]: 202 % of control | T/C (dose: 20.0 mg/kg/injection, schedule: Q04DX003 (ip), vehicle: saline): 152 % of control and 155 % of control | T/C [15]: 151 % of control | T/C (dose: 36.0 mg/kg/injection, schedule: Q01DX009 (ip), vehicle: water): 150 % of control | T/C (dose: 40.0 mg/kg/injection, schedule: Q04DX003 (ip), vehicle: saline): 113 % of control | T/C (dose: 80.0 mg/kg/injection, schedule: Q04DX003 (ip), vehicle: saline): 89 % of control

O=C(O)C(=O)O.[NH-]CC1CCCC[N-]1.[Pt+2] (stereo unspecified)
T/C (dose: 12.5 mg/kg/injection, schedule: Q04DX003 (ip), vehicle: saline with Tween-80): 164 % of control | T/C (dose: 25.0 mg/kg/injection, schedule: Q04DX003 (ip), vehicle: saline with Tween-80): 201 % of control | T/C (dose: 50.0 mg/kg/injection, schedule: Q04DX003 (ip), vehicle: saline with Tween-80): 238 % of control

O=C1O/C(=C\c2ccccc2)c2ccccc21
T/C (dose: 100.0 mg/kg/injection, schedule: Q04DX003 (ip), vehicle: saline): 104 % of control | T/C (dose: 200.0 mg/kg/injection, schedule: Q04DX003 (ip), vehicle: saline): 104 % of control | T/C (dose: 400.0 mg/kg/injection, schedule: Q04DX003 (ip), vehicle: saline): 98 % of control

CCOC(=O)c1c(O)c(=O)[nH]c2ccccc12
T/C (dose: 100.0 mg/kg/injection, schedule: Q01DX005 (ip), vehicle: saline with Tween-80): 106 % of control | T/C (dose: 200.0 mg/kg/injection, schedule: Q01DX005 (ip), vehicle: saline with Tween-80): 97 % of control | T/C (dose: 400.0 mg/kg/injection, schedule: Q01DX005 (ip), vehicle: saline with Tween-80): 97 % of control

NCS(=O)(=O)O
T/C [4]: 98 % of control

Cc1ccc(C2OC2C(=O)c2ccccc2)cc1 (stereo unspecified)
T/C (dose: 50.0 mg/kg/injection, schedule: Q04DX002 (ip), vehicle: saline with Tween-80): 95 % of control | T/C [4]: 94 % of control | T/C [12]: 91 % of control | T/C [6]: 92 % of control | T/C [8]: 94 % of control

O=CNc1ccc(C(=O)O)cc1
T/C [9]: 94 % of control | T/C [16]: 94 % of control | T/C [11]: 100 % of control

O=C(Nc1cccc(C(F)(F)F)c1)c1cccc(Cl)c1
T/C [17]: 94 % of control | T/C [18]: 95 % of control | T/C [19]: 94 % of control | T/C [20]: 97 % of control | T/C [21]: 98 % of control | T/C [22]: 101 % of control

CC(=O)OCC1OC(OC2C(COC(C)=O)OC(Sc3ccc(C)cc3)C(OC(C)=O)C2OC(C)=O)C(OC(C)=O)C(OC(C)=O)C1OC(C)=O (stereo unspecified)
T/C [9]: 97 % of control | T/C [16]: 91 % of control | T/C [11]: 94 % of control

OC(CC1=NCCS1)(c1ccccc1)c1ccccc1
T/C [9]: 93 % of control | T/C [16]: 87 % of control | T/C [11]: 98 % of control

Cc1ccc(S(=O)(=O)N/N=C/c2ccccc2)cc1
T/C (dose: 50.0 mg/kg/injection, schedule: Q01DX009 (ip), vehicle: Klucel (hydroxypropylcellulose) (HPC)): 95 % of control | T/C (dose: 100.0 mg/kg/injection, schedule: Q01DX009 (ip), vehicle: Klucel (hydroxypropylcellulose) (HPC)): 98 % of control | T/C (dose: 200.0 mg/kg/injection, schedule: Q01DX009 (ip), vehicle: Klucel (hydroxypropylcellulose) (HPC)): 101 % of control | T/C (dose: 400.0 mg/kg/injection, schedule: Q01DX009 (ip), vehicle: Klucel (hydroxypropylcellulose) (HPC)): 91 % of control

CCCCCCCCCCCCCCCCCCNC(=O)Nc1ccc(C)cc1C
T/C [17]: 98 % of control | T/C [18]: 89 % of control | T/C [19]: 104 % of control | T/C [20]: 100 % of control | T/C [21]: 107 % of control | T/C [22]: 89 % of control

O=[N+]([O-])c1ncn[nH]1
T/C [5]: 111 % of control | T/C [7]: 100 % of control | T/C [10]: 92 % of control

N#CC(C#N)=C1CCNc2ccccc21
T/C [5]: 96 % of control | T/C [9]: 101 % of control | T/C [7]: 94 % of control | T/C [16]: 103 % of control | T/C [10]: 90 % of control | T/C [11]: 97 % of control
